Blank lines part the entries; values can stand above or below the compound they belong to.
Assays:
[1] = system: green peach aphid (Myzus persicae); test: Enhancement of activity by ammonium/phosphonium salts, Myzus persicae test; format: in vivo; conditions: Myzus persicae on bell pepper, active compound 4 ppm
Procedure: To produce a suitable preparation of active compound, 1 part by weight of active compound is mixed with the stated amounts of solvent and emulsifier, and the concentrate is diluted with water to the desired concentration. For application with ammonium or phosphonium salts, these are added to the spray liquor in a concentration of 1000 ppm.
Bell pepper plants (Capsicum annuum) which are heavily infested by the green peach aphid (Myzus persicae) are treated by spraying to runoff point with the active compound preparation of the desired concentration. After the desired period of time, the kill in % is determined. 100% means that all animals have been killed; 0% means that none of the animals have been killed.

[2] = Determination of the log P values (LC/MS, HCOOH method); format: physicochemical; conditions: for log P: HPLC reversed-phase C18, HCOOH method; for chromatographic logP: reversed-phase C18 HPLC column, acidic range (pH 3.4)
Procedure: Determination of the Log P Values (LC/MS, HCOOH Method):
The log P values given in the tables were determined in accordance with EEC Directive 79/831 Annex V.A8 by HPLC (High Performance Liquid Chromatography) using a reversed-phase column (C 18). Temperature: 55° C.
Mobile phases for determination in the acidic range (pH 3.4):
Mobile phase A: acetonitrile+1 ml formic acid/liter. Mobile phase B: water+0.9 ml formic acid/liter. Gradient: from 10% mobile phase A/90% mobile phase B to 95% mobile phase A/5% mobile phase B over 4.25 min. Calibration was carried out using unbranched alkan-2-ones (having 3 to 16 carbon atoms) with known log P values (determination of the log P values by the retention times using linear interpolation between two successive alkanones). The lambda max values were determined in the maxima of the chromatographic signals using the UV spectra from 200 nm to 400 nm.

[3] = system: cotton aphid (Aphis gossypii); test: Enhancement of activity by ammonium/phosphonium salts in combination with penetrants, Aphis gossypii test; format: in vivo
Procedure: To produce a suitable preparation of active compound, 1 part by weight of active compound is mixed with the stated amounts of solvent and emulsifier, and the concentrate is diluted with emulsifier-containing water to the desired concentration. For application with ammonium or phosphonium salts and penetrants (rapeseed oil methyl esters 500 EW) these are added to the spray liquor in each case in a concentration of 1000 ppm.
Cotton plants (Gossypium hirsutum) which are heavily infested by the cotton aphid (Aphis gossypii) are treated by spraying to runoff point with the active compound preparation of the desired concentration.
After the desired period of time, the kill in % is determined. 100% means that all the aphids have been killed; 0% means that none of the aphids have been killed.

crop plants = test: Use of safeners: plant compatibility of test substances in crop plants; format: in vivo
Procedure: • Seeds of monocotyledonous and dicotyledonous weed and crop plants are placed in sandy loam in wood fiber pots, covered with soil and cultivated in a greenhouse under good growth conditions. 2 to 3 weeks after sowing, the test plants are treated at the one-leaf stage. The test compounds, formulated as wettable powders (WP) are then, with a water application rate of 600 l/ha (converted), with 0.2% of wetting agent added, sprayed at various dosages onto the green parts of the plants. After the test plants have been kept in the greenhouse under optimum growth conditions for about 3 weeks, the activity of the preparations is rated visually in comparison to untreated controls (herbicidal activity in percent: 100% activity=the plants have died, 0% activity=like control plants). • In addition to the compounds mentioned above, the following compounds show a post-emergence action of ≧80% against Echinocloa crus-galli, Lolium multiflorum and Setaria viridis at 80 g/ha: I-1-a-2, I-1-a-4, I-1-a-5, I-1-a-7, I-1-a-9, I-1-a-12, I-1-a-13, I-1-a-14, I-1-b-3.
Use of Safeners: • If it is additionally to be tested as to whether safeners can improve the plant compatibility of test substances in the case of crop plants, the following options are used for applying the safeners: • seeds of the crop plants are, before sowing, dressed with the safener substance (the amount of safener stated in percent, based on the weight of the seed) • before application of the test substances, the crop plants are sprayed with the safener at a certain application rate per hectare (usually 1 day before the application of the test substances) • the safener is applied together with the test substance as a tank mix (the amount of safener stated in g/ha or as a ratio, based on the herbicide).
• Application of the safener 1 day prior to the herbicide

[4] = α isomer of the α + β mixture, 55° C.
[5] = β isomer of the α + β mixture, 55° C.
[6] = compounds of formula (I-2-b), single isomer as labelled
[7] = single isomer isolated by preparative HPLC (formula I-2-a)

Structure (SMILES): Cc1cc(C)c(C2=C(O)C3(CCC(OCC(F)(F)F)CC3)NC2=O)c(C)c1 (mixture of isomers) [Example I-1-a-5]
- Kill rate/% after 6 days ([1]; +AS (1000 ppm)): 99%
- Kill rate/% after 6 days ([1]; without AS): 5%

- log P [2, 4]: α 3.10
- log P [2, 5]: β 2.95
Structure (SMILES): Cc1ccc(C)c(C2=C(O)C3(CCC(OCC(F)(F)F)CC3)OC2=O)c1 (mixture of isomers) [Example I-2-a-2]

Structure (SMILES): Cc1cc(C)c(C2=C(O)C3(CCC(OCC(F)(F)F)CC3)OC2=O)c(C)c1 (mixture of isomers) [Example I-2-a-3]
- log P [2, 4]: α 3.31
- log P [2, 5]: β 3.18

- log P [2, 4]: α 3.34
- log P [2, 5]: β 3.20
Structure (SMILES): Cc1cc(C)c(C2=C(O)C3(CCC(OCC(F)(F)F)CC3)OC2=O)cc1C (mixture of isomers) [Example I-2-a-4]

- log P [2, 4]: α 3.54
- log P [2, 5]: β 3.41
Structure (SMILES): CCc1cc(C)cc(C)c1C1=C(O)C2(CCC(OCC(F)(F)F)CC2)OC1=O (mixture of isomers) [Example I-2-a-5]

Structure (SMILES): Cc1ccc(-c2ccc(Cl)cc2)c(C)c1C1=C(O)C2(CCC(OCC(F)(F)F)CC2)OC1=O (mixture of isomers) [Example I-2-a-6]
- log P [2, 4]: α 4.29
- log P [2, 5]: β 4.13

Structure (SMILES): Cc1cc(Cl)cc(C)c1C1=C(O)C2(CCC(OCC(F)(F)F)CC2)OC1=O (mixture of isomers) [Example I-2-a-8]
- log P [2, 4]: 3.39
- log P [2, 5]: 3.25

Structure (SMILES): COc1cc(C)cc(C)c1C1=C(O)C2(CCC(OCC(F)(F)F)CC2)OC1=O (mixture of isomers) [Example I-2-a-11]
- log P [2, 4]: α 3.07
- log P [2, 5]: β 2.94

Structure (SMILES): CCc1cc(-c2ccc(Cl)cc2)cc(C)c1C1=C(O)C2(CCC(OCC(F)(F)F)CC2)OC1=O (mixture of isomers) [Example I-2-a-12]
- log P [2, 4]: α 4.51
- log P [2, 5]: β 4.36

Structure (SMILES): Cc1ccc(-c2ccc(F)cc2)c(C)c1C1=C(O)C2(CCC(OCC(F)(F)F)CC2)NC1=O (single isomer, unassigned) [Example I-1-a-3]
- Kill rate/% after 6 days ([3]; 4 ppm, +AS (1000 ppm)): 0%
- Kill rate/% after 6 days ([3]; 4 ppm, +RME (1000 ppm)): 5%
- Kill rate/% after 6 days ([3]; 4 ppm, +RME + AS (1000 ppm each)): 25%
- Kill rate/% after 6 days ([3]; 4 ppm, no additive): 0%
- Kill rate/% after 6 days ([3]; 20 ppm, +AS (1000 ppm)): 5%
- Kill rate/% after 6 days ([3]; 20 ppm, +RME (1000 ppm)): 10%
- Kill rate/% after 6 days ([3]; 20 ppm, +RME + AS (1000 ppm each)): 90%
- Kill rate/% after 6 days ([3]; 20 ppm, no additive): 25%

Structure (SMILES): CCc1cc(C)cc(Br)c1C1=C(O)C2(CCC(OCC(F)(F)F)CC2)NC1=O (single isomer, unassigned) [Example I-1-a-7]
- 10 days after application Summer wheat observed (%) (crop plants; 12.5 g a.i./ha): 40%
- 28 days after application Summer wheat observed (%) (crop plants; 12.5 g a.i./ha): 10%
- 10 days after application Summer wheat observed (%) (crop plants; 25 g a.i./ha): 50%
- 28 days after application Summer wheat observed (%) (crop plants; 25 g a.i./ha): 20%
- 10 days after application Summer wheat observed (%) (crop plants; 50 g a.i./ha): 60%
- 28 days after application Summer wheat observed (%) (crop plants; 50 g a.i./ha): 30%
- 10 days after application Summer wheat observed (%) (crop plants; 100 g a.i./ha): 60%
- 28 days after application Summer wheat observed (%) (crop plants; 100 g a.i./ha): 40%

- log P [2, 6]: 4.88
Structure (SMILES): Cc1ccc(C)c(C2=C(OC(=O)C(C)C)C3(CCC(OCC(F)(F)F)CC3)OC2=O)c1 (single isomer, unassigned) [Example I-2-b-5]

- log P [2, 6]: 4.62
Structure (SMILES): Cc1ccc(C)c(C2=C(OC(=O)C(C)C)C3(CCC(OCC(F)(F)F)CC3)OC2=O)c1 (single isomer, unassigned) [Example I-2-b-6]

Structure (SMILES): Cc1cc(Cl)cc(C)c1C1=C(OC(=O)C(C)C)C2(CCC(OCC(F)(F)F)CC2)OC1=O (single isomer, unassigned) [Example I-2-b-15]
- log P [2, 6]: 5.25

Structure (SMILES): Cc1cc(Cl)cc(C)c1C1=C(OC(=O)C(C)C)C2(CCC(OCC(F)(F)F)CC2)OC1=O (single isomer, unassigned) [Example I-2-b-16]
- log P [2, 6]: 4.97

- log P [2, 6]: 6.33
Structure (SMILES): CCc1cc(-c2ccc(Cl)cc2)cc(C)c1C1=C(OC(=O)C(C)C)C2(CCC(OCC(F)(F)F)CC2)OC1=O (single isomer, unassigned) [I-2-b-17]

- log P [2, 6]: 6.02
Structure (SMILES): CCc1cc(-c2ccc(Cl)cc2)cc(C)c1C1=C(OC(=O)C(C)C)C2(CCC(OCC(F)(F)F)CC2)OC1=O (single isomer, unassigned) [I-2-b-18]

- log P [2, 6]: 4.72
Structure (SMILES): COc1cc(C)cc(C)c1C1=C(OC(=O)C(C)C)C2(CCC(OCC(F)(F)F)CC2)OC1=O (single isomer, unassigned) [I-2-b-19]

- log P [2, 6]: 4.48
Structure (SMILES): COc1cc(C)cc(C)c1C1=C(OC(=O)C(C)C)C2(CCC(OCC(F)(F)F)CC2)OC1=O (single isomer, unassigned) [I-2-b-20]

- chromatographic logP ([2]; pH 3.4, α isomer of the isomer mixture, HPLC): 3.78
- chromatographic logP ([2]; pH 3.4, β isomer of the isomer mixture, HPLC): 3.64
Structure (SMILES): CCc1cc(C)cc(CC)c1C1=C(O)C2(CCC(OCC(F)(F)F)CC2)OC1=O (stereo not shown) [Example I-2-a-1]

Structure (SMILES): Cc1cc(C)c(C2=C(O)C3(CCC(OCC(F)(F)F)CC3)OC2=O)c(C)c1 (stereo not shown) [Example I-2-a-9]
- log P [2, 7]: 3.29

Structure (SMILES): Cc1cc(C)c(C2=C(O)C3(CCC(OCC(F)(F)F)CC3)OC2=O)c(C)c1 (stereo not shown) [Example I-2-a-10]
- log P [2, 7]: 3.16

- chromatographic logP ([2]; pH 3.4, HPLC): 5.69
Structure (SMILES): CCc1cc(C)cc(CC)c1C1=C(OC(=O)C(C)C)[C@]2(CC[C@H](OCC(F)(F)F)CC2)OC1=O [Example I-2-b-1]

- chromatographic logP ([2]; pH 3.4, HPLC): 5.4
Structure (SMILES): CCc1cc(C)cc(C)c1C1=C(OC(=O)C(C)C)[C@]2(CC[C@@H](OCC(F)(F)F)CC2)OC1=O [Example I-2-b-2]

Structure (SMILES): CCc1cc(C)cc(C)c1C1=C(OC(=O)C(C)C)[C@]2(CC[C@H](OCC(F)(F)F)CC2)OC1=O [Example I-2-b-3]
- log P [2, 6]: 5.44

Structure (SMILES): CCc1cc(C)cc(C)c1C1=C(OC(=O)C(C)C)C2(CCC(OCC(F)(F)F)CC2)OC1=O (stereo not shown) [Example I-2-b-4]
- log P [2, 6]: 5.15

Structure (SMILES): Cc1cc(C)c(C2=C(OC(=O)C(C)C)[C@]3(CC[C@H](OCC(F)(F)F)CC3)OC2=O)cc1C [Example I-2-b-7]
- log P [2, 6]: 5.14

Structure (SMILES): Cc1cc(C)c(C2=C(OC(=O)C(C)C)C3(CCC(OCC(F)(F)F)CC3)OC2=O)cc1C (stereo not shown) [Example I-2-b-8]
- log P [2, 6]: 4.87

- log P [2, 6]: 5.14
Structure (SMILES): Cc1cc(C)c(C2=C(OC(=O)C(C)C)[C@]3(CC[C@H](OCC(F)(F)F)CC3)OC2=O)c(C)c1 [Example I-2-b-9]

Structure (SMILES): Cc1cc(C)c(C2=C(OC(=O)C(C)C)C3(CCC(OCC(F)(F)F)CC3)OC2=O)c(C)c1 (stereo not shown) [Example I-2-b-10]
- log P [2, 6]: 4.88

Structure (SMILES): Cc1ccc(-c2ccc(Cl)cc2)c(C)c1C1=C(OC(=O)C(C)C)[C@]2(CC[C@H](OCC(F)(F)F)CC2)OC1=O [Example I-2-b-11]
- log P [2, 6]: 6.11

- log P [2, 6]: 5.83
Structure (SMILES): Cc1ccc(-c2ccc(Cl)cc2)c(C)c1C1=C(OC(=O)C(C)C)C2(CCC(OCC(F)(F)F)CC2)OC1=O (stereo not shown) [Example I-2-b-12]

Structure (SMILES): Cc1ccc(-c2ccc(Cl)cc2)cc1C1=C(OC(=O)C(C)C)[C@]2(CC[C@H](OCC(F)(F)F)CC2)OC1=O [Example I-2-b-13]
- log P [2, 6]: 5.84

Structure (SMILES): Cc1ccc(-c2ccc(Cl)cc2)cc1C1=C(OC(=O)C(C)C)C2(CCC(OCC(F)(F)F)CC2)OC1=O (stereo not shown) [Example I-2-b-14]
- log P [2, 6]: 5.55

— patent US8435549B2, “Halogen alkoxy spirocyclic tetramic and tetronic acid derivatives” (Bayer Cropscience AG, priority 2007, dated 2013)
